Test results as given in US20050191348A1 (priority 2004, published 2005).
pIC50: −log10 of the molar value.

What was measured:
[1] = test system: PC12 cells; test: Cell death under serum deprivation (apoptotic cell death detection ELISA), PC12; type: cell-based, rat; conditions: PC12, 24 h serum deprivation, significant at 1 and 10 μM
Procedure: Two different neuronal cell lines were used: the rat PC12 and the human neuroblastoma SH-SY5Y cells.
PC12 cells, originated from rat pheochromocytoma, were grown to confluence in T75 flasks containing DMEM (1000 mg/l glucose) and supplemented with 5% FCS, 10% horse serum, and a mixture of 1% of penicillin/streptomycin/nystatin.
Cell cultures were incubated at 37° C. in a humid 5% CO2-95% air environment. For cell viability assays, cells were treated with various drugs in serum free media containing 0.1% BSA.
In order to test cell viability, PC12 cells and SH-SY5Y neuroblastoma cels were incubated under serum deprivation and were untreated or treated with rasagiline (0.1. 1 or 10 μM) for 24 hours.

[2] = test system: PKC; test: PKC phosphorylation in PC12 cell lysates, Western blot with p-PKC (pan) antibody; type: cell-based, rat; conditions: PC12, 0.1, 1 and 10 μM, 1 h
Procedure: (iv) Immunoblot Analyses. For Western blot analyses, attached cells were washed once in cold PBS and then lysed in 1× nonreducing Laemmli buffer followed by boiling for 3-5 min. Protein content was determined using the Bradford method. Equal amounts of protein were separated by SDS-polyacrylamide gel electrophoresis and blotted onto polyvinylidene difluoride (PVDF) membranes (Millipore). Membranes were treated with blocking buffer (5% dry milk in PBS or 5% dry milk, 0.05% Tween 20 (Sigma) in TBS). Primary antibodies were diluted in PBS or in TBS containing 5% BSA, 0.05% Tween 20 and incubated with membranes for 20 h at 4° C., followed by incubation (1 h at room temperature) in dilutions of horseradish peroxidase (HRP)-conjugated secondary antibodies in the same buffers. Following antibody incubations, membranes were washed in 0.5% Tween 20 in PBS or TBS. Detection was achieved using ECL™ Western Blotting Detection Reagent (Amersham, Pharmacia, Little Chalfort Buckinghamshire, UK). Quantification of results was accomplished by measuring the optical density of the labeled bands from the autoradiograms by scanning laser densitometry using the computerized imaging program Bio-ID (Imager, Bio1D software; Vilber Lourmat, Marne La Vallee, France). The values were normalized to β-actin intensity levels.
Since activation of PKC has been shown previously to modulate cell viability, resulting in protection of neuronal cells, it was of interest to investigate the effects of rasagiline on PKC activation. In one experiment, PC12 cells were untreated or treated with various concentrations of rasagiline (0.1, 1 and 10 μM) for 1 hour. […] Phosphorylation of PKC was analyzed in cell lysates by Western blotting and detected with p-PKC (pan) antibody.
The effect of propargylamine on PKC phosphorylation/activation was investigated as described in Example 2 above.

[3] = test system: sAPPα; test: sAPPα release into medium of PC12 cells; type: cell-based, rat; conditions: PC12, 0.1, 1 and 10 μM, 3 h
Procedure: For the experiments, cells were seeded (2×10^6) onto 100-mm plates (for SH-SY5Y cells) or T75 flasks (for PC12 cells) in culture medium supplemented with full serum for 48 h. The cells were replaced with fresh medium containing 0.5% FCS for an additional 24 h (subconfluent culture), and then the experiments were performed in fresh medium containing 0.5% FCS for the indicated time periods at 37° C. After incubation with various drugs, the conditioned media were collected, centrifuged at 3500 g (10 min, 4° C.) to remove cell debris, and the cleared supernatants were concentrated 10-fold by lyophilization.
(vii) Determination of sAPP. […] Immunoreactivity was detected using anti-mouse IgG-conjugated with HRP and an enhanced chemiluminescence method (Amersham, Pharmacia Biotech, UK). Blots were developed for different times to span a linear range of response, and the relative intensity of immunoreactive bands on the exposed films was quantified by computer-assisted densitometry program (Quantity One, Bio-Rad, Hercules, Calif., USA).
We further characterized, in detail, the effect of rasagiline on APP processing and the signaling pathways that are involved. Thus, SH-SY5Y neuroblastoma cells were incubated for 3 h without or with increasing concentrations of rasagiline (0.1, 1 and 10 μM), and sAPPα was measured in the media as described in Materials and Methods. […]

[4] = molecular target: T1, rat brain MAO-A (Rattus norvegicus, UniProt P21396); test: In vitro inhibition of rat brain MAO-A; type: biochemical; conditions: rat brain homogenate, 60 min preincubation at 37° C., 14C-5-hydroxytryptamine
T1 construct: from tissue; host or cells: rat brain homogenate
T1 sequence (P21396 1-526): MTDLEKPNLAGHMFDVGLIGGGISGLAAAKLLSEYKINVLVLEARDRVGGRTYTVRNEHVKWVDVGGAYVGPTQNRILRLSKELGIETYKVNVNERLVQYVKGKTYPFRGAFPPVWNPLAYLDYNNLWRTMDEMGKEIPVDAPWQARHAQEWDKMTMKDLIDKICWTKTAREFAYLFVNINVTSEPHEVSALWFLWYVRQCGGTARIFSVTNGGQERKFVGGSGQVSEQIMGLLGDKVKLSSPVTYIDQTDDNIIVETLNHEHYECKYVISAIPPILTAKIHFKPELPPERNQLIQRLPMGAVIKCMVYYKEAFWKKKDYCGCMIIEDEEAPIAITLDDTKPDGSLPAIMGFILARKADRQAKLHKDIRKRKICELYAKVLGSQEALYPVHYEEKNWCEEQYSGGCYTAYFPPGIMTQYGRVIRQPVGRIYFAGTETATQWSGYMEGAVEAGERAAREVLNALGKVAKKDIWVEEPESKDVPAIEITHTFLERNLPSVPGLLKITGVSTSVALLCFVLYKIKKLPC
Procedure: To determine the activity of MAO-A and MAO-B, the test compound is added to a suitable dilution of the enzyme preparation from rat brain (70 μg protein for MAO-B and 150 μg MAO-A assay) in 0.05 M phosphate buffer (pH 7.4). Tthe mixture is incubated together with […], a specific inhibitor of MAO-B (for determination of MAO-A) or with […], a specific inhibitor of MAO-A (for determination of MAO-B). Incubation is carried for 1 h at 37° C. before addition of ^14C-5-hydroxytryptamine binoxalate ([…]), for determination of MAO-A, or ^14C-phenylethylamine ([…]), for determination of MAO-B, and incubation is continued for 30 min or 20 min, respectively. The reaction is stopped with 2 M ice-cold citric acid, and the metabolites are extracted and determined by liquid-scintillation counting in cpm units.
Thus, in one experiment, the in vitro inhibitory activity of 5-(4-propargylpiperazin-1-ylmethyl)-8-hydroxy-quinoline (HLA20) and the 8-hydroxyquinoline derivative designated M32 (both iron chelators disclosed in the International Application PCT/IL03/00932), and propargylamine (P) (0.1, 1, 10, 100 μM) were tested against rat brain MAO-A. The test compounds were added to buffer containing 0.05 μM deprenyl and were incubated with the tissue homogenate for 60 min at 37° C. before addition of ^14C-5-hydroxytryptamine. […]

With `C#CCN` [propargylamine] the “cell death induced by serum deprivation” value [1] was “significantly reduced cell death”, the PKC phosphorylation [2] was “significant, dose-dependent increase in PKC phosphorylation” and the “sAPPα released into the medium” value [3] was “significant, dose-dependent increase in sAPPα”. The pIC50 [4] was roughly 4.18.
